One block for each compound: values may come before it.
What was measured:
[1] = test system: 56-mer VTD3 aptamer (DNA, aptamer) AGCAGCACAGAGGTCATGGGGGGTGTGACTTTGGTGTGCCTATGCGTGCTACGGAA; assay: curcumin fluorescence displacement; conditions: 0.1 mM NaCl; 5% ethanol; aptamer 100 nM, curcumin 0.6 µM displaced; up to 1 µM
[2] = test system: 56-mer VTD3 aptamer (DNA, aptamer) AGCAGCACAGAGGTCATGGGGGGTGTGACTTTGGTGTGCCTATGCGTGCTACGGAA; assay: CD; curcumin fluorescence displacement; conditions: 0.1 mM NaCl; CD: aptamer 0.8 µM, VTD3 20 µM; curcumin displaced
[3] = test system: Random ssDNA (70-mer) (DNA, single strand) AGGCCTAAGGGCATAATTAGCTCGAGCTCGAAAGGGGTTATATGATGATTTGAATTCATGGGGCCCGACT; assay: curcumin fluorescence displacement; conditions: 0.1 mM NaCl, 5% ethanol, curcumin 0.6 µM, no sensor response
[4] = test system: 75-mer BPA aptamer (DNA, aptamer) ATACGAGCTTGTTCAATAGGAAATCACGATTAGGTCCTCCGTCTGTGTGCGGTTGTGGTGATAGTAAGAGCAATC; assay: curcumin fluorescence displacement; conditions: 0.1 mM NaCl; 5% ethanol; aptamer 100 nM, curcumin 0.6 µM displaced
[5] = test system: 56-mer VTD3 aptamer (DNA, aptamer) AGCAGCACAGAGGTCATGGGGGGTGTGACTTTGGTGTGCCTATGCGTGCTACGGAA; assay: fluorescence enhancement; CD; conditions: 0.1 M NaCl; 5% ethanol; SYBR Green I 5 µM
[6] = test system: 56-mer VTD3 aptamer (DNA, aptamer) AGCAGCACAGAGGTCATGGGGGGTGTGACTTTGGTGTGCCTATGCGTGCTACGGAA; assay: fluorescence titration, Langmuir fit; conditions: 0.1 mM NaCl (methods: 0.1 M NaCl); 5% ethanol, 5 and 25 °C; curcumin 0.6 µM; b27 prints 0.7 µM, b25 0.7 nM
[7] = test system: 75-mer BPA aptamer (DNA, aptamer) ATACGAGCTTGTTCAATAGGAAATCACGATTAGGTCCTCCGTCTGTGTGCGGTTGTGGTGATAGTAAGAGCAATC; assay: fluorescence enhancement; conditions: 0.1 mM NaCl; aptamer 100 nM, curcumin 0.6 µM

binding [1]: no
SMILES: C=C1CC[C@H](O)C/C1=C/C=C1\CCC[C@]2(C)[C@@H]([C@H](C)/C=C/[C@H](C)C(C)C)CC[C@@H]12

binding [2]: yes
binding ([3]; VTD3 up to 1 µM): no
SMILES: C=C1CC[C@H](O)C/C1=C/C=C1\CCC[C@]2(C)[C@@H]([C@H](C)CCCC(C)C)CC[C@@H]12

binding [4]: yes
binding [3]: no
SMILES: CC(C)(c1ccc(O)cc1)c1ccc(O)cc1

KD [6]: 0.7 nM
binding [7]: yes
SMILES: COc1cc(/C=C/C(=O)CC(=O)/C=C/c2ccc(O)c(OC)c2)ccc1O

binding [1]: no
SMILES: C[C@]12C=CC(=O)C=C1CC[C@@H]1[C@@H]2C(=O)C[C@@]2(C)[C@H]1CC[C@]2(O)C(=O)CO

Second part, the compound before the results:

SMILES: CC(=O)[C@H]1CC[C@H]2[C@@H]3CCC4=CC(=O)CC[C@]4(C)[C@H]3CC[C@]12C
binding [1]: no

SMILES: CCCN(CCCN(C)C)c1cc(C=C2Sc3ccccc3N2C)c2ccccc2[n+]1-c1ccccc1
binding [5]: yes

SMILES: C[C@]12CC[C@@H]3c4ccc(O)cc4CC[C@H]3[C@@H]1CC[C@@H]2O
binding [1]: no

Reference: article PMC6806071 (2019)
